Laboratory results reported in US6699880B1 (priority 1999, dated 2004).

Molecular target: T1, human m4 receptor (Homo sapiens, UniProt P08173)
T1 construct: expressed in transfected cells
T1 sequence (P08173 1-479): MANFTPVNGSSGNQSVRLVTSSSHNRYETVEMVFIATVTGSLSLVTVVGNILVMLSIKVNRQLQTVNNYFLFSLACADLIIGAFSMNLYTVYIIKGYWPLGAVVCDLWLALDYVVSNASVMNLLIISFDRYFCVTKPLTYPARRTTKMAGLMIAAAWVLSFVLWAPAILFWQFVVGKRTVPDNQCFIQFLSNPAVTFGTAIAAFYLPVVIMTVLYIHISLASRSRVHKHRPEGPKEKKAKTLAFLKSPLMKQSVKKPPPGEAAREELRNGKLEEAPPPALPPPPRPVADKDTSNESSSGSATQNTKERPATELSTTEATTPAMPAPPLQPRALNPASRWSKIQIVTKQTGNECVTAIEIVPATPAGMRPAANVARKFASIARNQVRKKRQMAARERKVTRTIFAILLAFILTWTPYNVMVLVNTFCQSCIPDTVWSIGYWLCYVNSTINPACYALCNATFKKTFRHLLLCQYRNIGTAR
Assay type: cell-based
Details: 0.01 µM

SMILES	Agonist Activity (%) (M4 Receptors-Stimulating Activity)
C#CCn1c(=O)n(C2CCN(C3CCN(C(=O)OC)CC3)CC2)c2ccccc21 [Example 1, 1-[1-(1-methoxycarbonylpiperidin-4-yl)-piperidin-4-yl]-3-(2-propinyl)-1,3-dihydro-2H-benzimidazol-2-one]	91%
C=CCn1c(=O)n(C2CCN(C3CCN(C(=O)OC)CC3)CC2)c2ccccc21 [Example 2, 1-[1-(1-methoxycarbonylpiperidin-4-yl)-piperidin-4-yl]-3-(2-propenyl)-1,3-dihydro-2H-benzimidazol-2-one]	96%
COC(=O)N1CCC(N2CCC(n3c(=O)n(CCN)c4ccccc43)CC2)CC1 [Example 8, 1-[1-(1-methoxycarbonylpiperidin-4-yl)-piperidin-4-yl]-3-(2-aminoethyl)-1,3-dihydro-2H-benzimidazol-2-one]	95%
COC(=O)N1CCC(N2CCC(n3c(=O)n(C)c4ccccc43)CC2)CC1 [Example 4, 1-[1-(1-methoxycarbonylpiperidin-4-yl)-piperidin-4-yl]-3-methyl-1,3-dihydro-2H-benzimidazol-2-one]	96%
COC(=O)N1CCC(N2CCC(n3c(=O)n(CC(F)(F)F)c4ccccc43)CC2)CC1 [Example 5, 1-[1-(1-methoxycarbonylpiperidin-4-yl)-piperidin-4-yl]-3-(2,2,2-trifluoroethyl)-1,3-dihydro-2H-benzimidazol-2-one]	90%
CCCCn1c(=O)n(C2CCN(C3CCN(C(=O)OC)CC3)CC2)c2ccccc21 [Example 3, 1-[1-(1-methoxycarbonylpiperidin-4-yl)-piperidin-4-yl]-3-n-butyl-1,3-dihydro-2H-benzimidazol-2-one]	101%
COC(=O)N1CCC(N2CCC(n3c(=O)n(CC(C)=O)c4ccccc43)CC2)CC1 [Example 7, 1-[1-(1-methoxycarbonylpiperidin-4-yl)-piperidin-4-yl]-3-(2-oxopropyl)-1,3-dihydro-2H-benzimidazol-2-one]	97%
COC(=O)Cn1c(=O)n(C2CCN(C3CCN(C(=O)OC)CC3)CC2)c2ccccc21 [Example 6, 1-[1-(1-methoxycarbonylpiperidin-4-yl)-piperidin-4-yl]-3-(methoxycarbonylmethyl)-1,3-dihydro-2H-benzimidazol-2-one]	92%
CCOC(=O)N1CCC(N2CCC(n3c(=O)n(S(C)(=O)=O)c4ccccc43)CC2)CC1 [Example 20, 1-[1-(1-ethoxycarbonylpiperidin-4-yl)-piperidin-4-yl]-3-(methylsulfonyl)-1,3-dihydro-2H-benzimidazol-2-one]	94%
COC(=O)N1CCC(N2CCC(n3c(=O)n(C(C)=O)c4ccccc43)CC2)CC1 [Example 12, 1-[1-(1-methoxycarbonylpiperidin-4-yl)-piperidin-4-yl]-3-acetyl-1,3-dihydro-2H-benzimidazol-2-one]	95%
